How the values were obtained:
[1] = excess molar enthalpy (molar enthalpy of mixing); xn = mol fraction of the nth substance listed; settings: 298.15 K, Liquid, Calvet calorimetry
[2] = 298.15 K; 101.33 kPa; Liquid

CCCCCC(=O)OC(=O)CCCCC [caproic anhydride] + CCCCCCCCCCCC
[1]
Settings | excess molar enthalpy [kcal/mol]
x1 = 0.0213 | 0.0366
x1 = 0.0417 | 0.0668
x1 = 0.0612 | 0.0922
x1 = 0.08 | 0.114
x1 = 0.098 | 0.133
x1 = 0.1154 | 0.15
x1 = 0.1349 | 0.166
x1 = 0.1536 | 0.181
x1 = 0.1714 | 0.194
x1 = 0.1886 | 0.204
x1 = 0.205 | 0.214
x1 = 0.2208 | 0.222
x1 = 0.2374 | 0.23
x1 = 0.2533 | 0.236
x1 = 0.2625 | 0.244
x1 = 0.2688 | 0.247
x1 = 0.2754 | 0.249
x1 = 0.2824 | 0.252
x1 = 0.2897 | 0.254
x1 = 0.2974 | 0.257
x1 = 0.3056 | 0.26
x1 = 0.3134 | 0.262
x1 = 0.3215 | 0.264
x1 = 0.3301 | 0.266
x1 = 0.3392 | 0.268
x1 = 0.3471 | 0.27
x1 = 0.3555 | 0.272
x1 = 0.3642 | 0.273
x1 = 0.3733 | 0.275
x1 = 0.383 | 0.276
x1 = 0.3931 | 0.278
x1 = 0.4023 | 0.279
x1 = 0.412 | 0.279
x1 = 0.4222 | 0.28
x1 = 0.4329 | 0.28
x1 = 0.4442 | 0.281
x1 = 0.456 | 0.281
x1 = 0.4672 | 0.281
x1 = 0.4789 | 0.28
x1 = 0.4913 | 0.279
x1 = 0.5043 | 0.278
x1 = 0.5162 | 0.276
x1 = 0.5286 | 0.275
x1 = 0.5417 | 0.272
x1 = 0.5554 | 0.27
x1 = 0.5698 | 0.267
x1 = 0.585 | 0.263
x1 = 0.5987 | 0.259
x1 = 0.613 | 0.255
x1 = 0.628 | 0.251
x1 = 0.6438 | 0.245
x1 = 0.6604 | 0.239
x1 = 0.6778 | 0.232
x1 = 0.6941 | 0.224
x1 = 0.7112 | 0.217
x1 = 0.7291 | 0.208
x1 = 0.748 | 0.198
x1 = 0.7678 | 0.187
x1 = 0.7854 | 0.176
x1 = 0.8039 | 0.166
x1 = 0.8233 | 0.151
x1 = 0.8436 | 0.137
x1 = 0.8649 | 0.121
x1 = 0.8874 | 0.103
x1 = 0.9079 | 0.086
x1 = 0.9293 | 0.0676
x1 = 0.9517 | 0.0472
x1 = 0.9753 | 0.0247

CCCCC(=O)OC(=O)CCCC [pentanoic anhydride] + CCCCCCCCCCCCCCCC
[1]
Settings | excess molar enthalpy [kcal/mol]
x1 = 0.0353 | 0.0694
x1 = 0.0683 | 0.125
x1 = 0.099 | 0.169
x1 = 0.1278 | 0.205
x1 = 0.1567 | 0.236
x1 = 0.1837 | 0.263
x1 = 0.209 | 0.284
x1 = 0.2329 | 0.302
x1 = 0.2553 | 0.317
x1 = 0.277 | 0.33
x1 = 0.2993 | 0.342
x1 = 0.3202 | 0.352
x1 = 0.3399 | 0.36
x1 = 0.3619 | 0.367
x1 = 0.3825 | 0.372
x1 = 0.4019 | 0.377
x1 = 0.42 | 0.38
x1 = 0.4371 | 0.382
x1 = 0.4532 | 0.383
x1 = 0.4705 | 0.384
x1 = 0.4866 | 0.384
x1 = 0.5018 | 0.383
x1 = 0.5161 | 0.382
x1 = 0.5296 | 0.381
x1 = 0.5424 | 0.379
x1 = 0.5564 | 0.377
x1 = 0.5695 | 0.374
x1 = 0.5819 | 0.371
x1 = 0.5935 | 0.368
x1 = 0.6046 | 0.365
x1 = 0.6168 | 0.363
x1 = 0.6292 | 0.358
x1 = 0.6421 | 0.353
x1 = 0.6556 | 0.348
x1 = 0.6696 | 0.342
x1 = 0.6842 | 0.335
x1 = 0.697 | 0.328
x1 = 0.7103 | 0.321
x1 = 0.7242 | 0.313
x1 = 0.7386 | 0.303
x1 = 0.7536 | 0.293
x1 = 0.7692 | 0.282
x1 = 0.7832 | 0.271
x1 = 0.7977 | 0.259
x1 = 0.8128 | 0.246
x1 = 0.8285 | 0.231
x1 = 0.8448 | 0.215
x1 = 0.8591 | 0.199
x1 = 0.8739 | 0.183
x1 = 0.8892 | 0.164
x1 = 0.905 | 0.145
x1 = 0.9214 | 0.123
x1 = 0.9361 | 0.103
x1 = 0.9513 | 0.0797
x1 = 0.967 | 0.0552
x1 = 0.9832 | 0.0282

CCCCCCCCCCCCCCCC [hexadecane]
Settings | mass density [kg/m3]
[2] | 770.31

CCCCCC(=O)OC(=O)CCCCC [caproic anhydride] + CCCCCCCCCCCCCC
[1]
Settings | excess molar enthalpy [kcal/mol]
x1 = 0.0274 | 0.0479
x1 = 0.0533 | 0.0863
x1 = 0.0779 | 0.118
x1 = 0.1012 | 0.144
x1 = 0.1234 | 0.166
x1 = 0.1445 | 0.185
x1 = 0.1681 | 0.203
x1 = 0.1904 | 0.219
x1 = 0.2115 | 0.232
x1 = 0.2316 | 0.247
x1 = 0.2372 | 0.25
x1 = 0.2431 | 0.253
x1 = 0.2493 | 0.256
x1 = 0.2559 | 0.259
x1 = 0.2628 | 0.263
x1 = 0.2691 | 0.266
x1 = 0.2757 | 0.269
x1 = 0.2826 | 0.272
x1 = 0.2899 | 0.275
x1 = 0.2975 | 0.278
x1 = 0.3056 | 0.281
x1 = 0.3129 | 0.284
x1 = 0.3204 | 0.286
x1 = 0.3284 | 0.289
x1 = 0.3368 | 0.291
x1 = 0.3456 | 0.294
x1 = 0.3548 | 0.296
x1 = 0.363 | 0.298
x1 = 0.3715 | 0.3
x1 = 0.3805 | 0.301
x1 = 0.3899 | 0.303
x1 = 0.3998 | 0.305
x1 = 0.4012 | 0.306
x1 = 0.4103 | 0.307
x1 = 0.4199 | 0.308
x1 = 0.4299 | 0.309
x1 = 0.4404 | 0.31
x1 = 0.4514 | 0.31
x1 = 0.463 | 0.31
x1 = 0.4734 | 0.31
x1 = 0.4843 | 0.31
x1 = 0.4958 | 0.309
x1 = 0.5077 | 0.308
x1 = 0.5203 | 0.307
x1 = 0.5335 | 0.305
x1 = 0.5453 | 0.303
x1 = 0.5575 | 0.3
x1 = 0.5703 | 0.297
x1 = 0.5838 | 0.294
x1 = 0.5979 | 0.29
x1 = 0.6126 | 0.286
x1 = 0.6261 | 0.281
x1 = 0.6401 | 0.277
x1 = 0.6548 | 0.271
x1 = 0.6702 | 0.265
x1 = 0.6863 | 0.258
x1 = 0.7032 | 0.249
x1 = 0.7185 | 0.242
x1 = 0.7345 | 0.232
x1 = 0.7512 | 0.223
x1 = 0.7686 | 0.212
x1 = 0.7869 | 0.2
x1 = 0.8038 | 0.188
x1 = 0.8214 | 0.175
x1 = 0.8397 | 0.16
x1 = 0.8589 | 0.145
x1 = 0.879 | 0.127
x1 = 0.9001 | 0.108
x1 = 0.9185 | 0.0894
x1 = 0.9376 | 0.07
x1 = 0.9575 | 0.0488
x1 = 0.9783 | 0.0255

Source: the NIST ThermoML archive (doi:10.1021/je900598y)
